Values joined by “and” are separate entries in the source; they are usually repeats but may differ in a detail not shown here. Equal entries are not always repeated.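 Dose response: 5 concentrations. Exposure: 48 h. Format: 96-well plates. Endpoint: linear interpolation; highest concentration if not reached. GI50 marks 50% less growth. TGI marks complete inhibition of growth.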
Assays:
Test in all cases: NCI anticancer screen, dose series, 48 h
[1] = tested on: EKVX NSCLC
[2] = tested on: SF-268 CNS
[3] = tested on: SK-MEL-5 melanoma
[4] = tested on: OVCAR-8 ovarian
[5] = tested on: SNB-75 CNS
[6] = tested on: M14 melanoma
[7] = tested on: RXF 393 renal
[8] = tested on: NCI-H23 lung
[9] = tested on: MDA-MB-435
[10] = tested on: RPMI-8226 leukemia

SMILES	TGI [1] [µM]	TGI [2] [µM]	TGI [3] [µM]	TGI [4] [µM]	TGI [5] [µM]	TGI [6]	TGI [7] [µM]	TGI [8] [µM]	TGI [9] [µM]	TGI [10] [µM]	GI50 [1] [µM]	GI50 [2] [µM]	GI50 [3] [µM]	GI50 [4] [µM]	GI50 [5] [µM]	GI50 [10] [µM]	GI50 [6] [µM]	GI50 [7] [µM]	GI50 [8] [µM]	GI50 [9] [µM]
CCNC(=O)Nc1cccc(NC(=O)NCC)n1	> 100	> 100	> 100	> 100	> 100	> 100 µM	> 100	> 100	> 100											
Cn1c2ccccc2c(=O)c2ccc(Cl)cc21	> 10	> 10	> 10	> 10	> 10		> 10	> 10	> 10	> 10										
C[C@H](O)C(=O)N1CCC(CCn2c(Sc3cc4c(cc3Br)OCO4)nc3c(N)ncnc32)CC1	> 100	> 100	> 100	> 100	> 100	> 100 µM	> 31.6	> 100	> 100	> 100	4.11	8.83	2.95	0.827	9.04	4.19	0.965	2.57	0.689	0.577
CCCCCCCCCCCCCCCCCCOc1ccccc1CC(=O)OCC[N+]1(C)CCCC1	16.4	3.34			3.07	5.46 µM	2.76		3.31		3.38	1.55			1.26		2.28	1.35		1.73
Nc1nc(F)nc2c1ncn2C1OC(CO)C(O)C1O (centres undefined)	> 100	> 100	> 100	> 100	> 100	> 58.6 µM and 40.2 µM	> 100	> 88.3	> 100	> 100		55.4	39.7	3.64			6.39	97.6	7.99	17.1
COc1ccc(CC2NCCc3cc(OC)c(OC)cc32)cc1Br (centres undefined)	> 100	> 100	19.9	> 100	> 83.2	31 µM	59.1	85.7	60	50.2										
Br[C](Br)(Br)[Hg][c]1ccccc1	37.7	56.2	24.8	18.4	32.6	12.2 µM	21.5	23	30	70.6	22	24.1	11.7	12.9	15.8	18.9	5.23	8.55	9.3	16.1
C#Cc1c(I)n(C2OC(CO[Si](C)(C)C(C)(C)C)C3OC(C)(C)OC32)c(=O)[nH]c1=O (centres undefined)	52.3	27.8	27.1	27.8	29.4	33.3 µM	14.2	39.6	31	13.7	20.6	12.3	13.1	12.1	14.4	3.63	16.3	3.68	18.9	15
C=C1C(=O)OC2/C=C(\COC(C)=O)CCC(OC(C)=O)C3=CC(OC3=O)C12 (centres undefined)	34.3	50	26.7	9.6	35.6	10 µM	3.28	20.7	32.9	> 100										
ClCc1cccc(Cn2cnc3nc(Cl)nc(Cl)c32)c1	2.2	3.83	1.94	21.2	2.2	2.28 µM	2.92	2.56	3.16	4.15	0.84	1.38	0.614	9.24	0.912	1.72	0.854	1.33	1.29	1.65
O=c1c2ccccc2c(=O)c2c1[nH]c1c(-c3ccccc3)c(-c3ccccc3)c(=O)c12	11.8	> 100	4.03	9.33	52.1	5.63 µM	5.02	14.4	9.42	12	3.2	4.48	2.05	2.79	15.1	2.07	2.41	1.54	3.72	3.24
COc1ccc2cc(C(C)C(=O)N3CCOC3=O)ccc2c1 (centres undefined)	> 100	> 100	> 100	> 100	> 100	> 100 µM	> 100	> 100	> 100	> 100										
O=c1cccc(C#CC#CC2=CCCCC2)o1	25.8	20.6	8.89	6.32	36.8	6.34 µM	5.57	2.87	10.4	5.83	10.2	9.15	3.3	2.21	7.1	2.19	2.13	2.69	1.14	4
C[C@]12CC[C@@H]3c4cc(OCC(F)(F)F)c(O)cc4/C(=N/O)C[C@H]3[C@@H]1CC[C@@H]2O	28.9	21.7	12.5	15.5		16.9 µM	0.135	12.7	0.0465	2.33				0.0808		0.0584	0.0513	0.0322	0.0787	
COc1cccc(C#Cc2ccccc2C#CCCCCO)c1	24.3	33.5	33.8	27.9	26.3		9.89	26.1	8.2	26.4	8.74	16.1	19.1	12.5	12.8	3.77		1.78	12.5	1.92

Source: PubChem BioAssay (NCI)
